Measurements taken from publication PMC10997663, “Mechano-sensitivity of β2-adrenoceptors enhances constitutive activation of cAMP generation that is inhibited by inverse agonists” (Communications Biology, 2024).
Like-named read-outs stand apart in the source and are kept apart here.

Experiments:
β2-adrenoceptor (β2AR) [1] = experiment: cells; parameters: species or system HEK293G overexpressing TS-SNAP-β2AR; GloSensor cAMP luminescence; inverse agonist inhibition of the peak basal (mechanically stimulated) response; conditions: HEK293G, read-out: % of control remaining
Experimental: (§1) Four inverse agonists were evaluated as inhibitors of the basal GloSensor^TM response in HEK293G cells overexpressing the TS-SNAP-β2AR (Fig. 3). […] Each inverse agonist was added immediately following an initial luminescence read at time zero. The plate therefore entered the PheraStar at time zero, was then removed for the addition of inverse agonist or HBSS and measurements were made again at t = 1 min and every minute thereafter. Values are mean ± SEM of five independent experiments.

β2-adrenoceptor (β2AR) [2] = experiment: cells; parameters: species or system HEK293G overexpressing TS-SNAP-β2AR; GloSensor cAMP luminescence; inverse agonist inhibition of the peak basal (mechanically stimulated) response; conditions: HEK293G, read-out: % of control remaining; remark: listed apart in the source
Experimental: as §1

β2-adrenoceptor (β2AR) [3] = target: T1, β2-adrenoceptor (β2AR) (Homo sapiens, UniProt P07550); experiment: NanoBRET saturation binding in live HEK293G cells; type: cell-based
T1 construct: gene ADRB2; HiBiT-β2AR (N-terminal HiBiT tag), complemented with LgBiT
T1 sequence (P07550 whole entry): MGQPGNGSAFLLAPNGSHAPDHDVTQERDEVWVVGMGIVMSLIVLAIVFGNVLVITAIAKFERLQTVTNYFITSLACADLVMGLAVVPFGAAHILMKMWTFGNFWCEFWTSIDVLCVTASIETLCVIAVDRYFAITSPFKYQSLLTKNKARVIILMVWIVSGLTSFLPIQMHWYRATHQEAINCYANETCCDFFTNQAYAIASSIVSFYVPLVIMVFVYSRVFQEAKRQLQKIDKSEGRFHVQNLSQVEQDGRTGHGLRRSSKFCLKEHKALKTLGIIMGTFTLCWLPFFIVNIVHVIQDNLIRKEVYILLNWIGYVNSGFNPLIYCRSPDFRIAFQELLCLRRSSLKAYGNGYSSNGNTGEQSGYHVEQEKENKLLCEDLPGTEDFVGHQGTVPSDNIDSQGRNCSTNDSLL

Kd (β2-adrenoceptor (β2AR) [3]) | Structure (SMILES) | activity at 10 µM (β2-adrenoceptor (β2AR) [1]) | activity at 10 µM (β2-adrenoceptor (β2AR) [2])
 | COc1ccccc1OCCNCC(O)COc1cccc2[nH]c3ccccc3c12 (stereo not drawn) [carvedilol] | 41.1 ± 4.32% | 54 ± 10.6%
32.6 ± 7.42 nM | Cc1ccc(OCC(O)C(C)NCCNC(=O)CCNC(=O)CCNC(=O)CCCCCNC(=O)COc2ccc(C=CC3=[N+]4C(=Cc5ccc(-c6cccs6)n5[B-]4(F)F)C=C3)cc2)c2c1CCC2 (stereo not drawn) [ICI-118551-βAla-βAla-BODIPY-X-630/650] |  | 
